From publication PMC6944458, “Intracellular and in vivo evaluation of imidazo[2,1-b]thiazole-5-carboxamide anti-tuberculosis compounds” (PLoS ONE, 2020)
Values after ≈ are worked out from the molar mass of the structure shown. Like-named read-outs stand apart in the source and are kept apart here.

Assays:
Assay type in all cases: cell-based, Mycobacterium tuberculosis
[1] = test system: Isoniazid resistant strain ACTCC35822
[2] = test system: Fluoroquinolone resistant strain derived from H37Rv Mtb, gyrA mutant (D94N)
[3] = test system: Rifampicin resistant strain ACTCC35838; assay: microbe, parasite or virus in culture; conditions: read-out: MIC RIF res2
[4] = test system: Rifampicin resistant strain derived from H37Rv Mtb, ropB mutant (S522L)
[5] = test system: Isoniazid resistant strain derived from H37Rv Mtb, katG mutant (Y155* = truncation)

SMILES | MIC INH res2 [1] | MIC FQ res [2] | MIC ([3]; Mycobacterium tuberculosis) | MIC RIF res1 [4] | MIC INH res1 [5] | MIC INH res2 ([1]; ACTCC35822) | MIC [3]
NNC(=O)c1ccncc1 [INH, Isoniazid] | >200 µM | 0.34 µM (≈ 0.0466 µg/mL) | 0.37 µM (≈ 0.0507 µg/mL) | 0.160 µM (≈ 0.0219 µg/mL) | >200 µM | – | –
C[C@H]1COc2c(N3CCN(C)CC3)c(F)cc3c(=O)c(C(=O)O)cn1c23 [LEV, Levoflaxacin] | – | 91 µM (≈ 32.9 µg/mL) | – | 3.43 µM (≈ 1.24 µg/mL) | 3.97 µM (≈ 1.43 µg/mL) | 5.83 µM (≈ 2.11 µg/mL) | 3.83 µM (≈ 1.38 µg/mL)
Cc1cn2c(C(=O)NCc3ccc(N4CCN(c5ccc(C(F)(F)F)cn5)CC4)c(F)c3)c(C)nc2s1 [ND-11543, N-(3-fluoro-4-(4-(5-(trifluoromethyl)pyridin-2-yl)piperazin-1-yl)benzyl)-2,6-dimethylimidazo[2,1-b]thiazole-5-carboxamide] | 0.0047 µM (≈ 0.0025 µg/mL) | 0.010 µM (≈ 0.00533 µg/mL) | 0.0057 µM (≈ 0.00304 µg/mL) | 0.0017 µM (≈ 0.000905 µg/mL) | 0.012 µM (≈ 0.00639 µg/mL) | – | –
Cc1cn2c(C(=O)NCc3ccc(N4CCS(=O)(=O)CC4)c(F)c3)c(C)nc2s1 [ND-11903, N-(4-(1,1-Dioxidothiomorpholino)-3-fluorobenzyl)-2,6-dimethylimidazo[2,1-b]thiazole-5-carboxamide] | 5.0 µM (≈ 2.18 µg/mL) | 3.2 µM (≈ 1.4 µg/mL) | 7 µM (≈ 3.06 µg/mL) | 2.9 µM (≈ 1.27 µg/mL) | 6.5 µM (≈ 2.84 µg/mL) | – | –
CCc1nc2sc(C)cn2c1C(=O)NCc1ccc(Oc2cccc(C(F)(F)F)c2)nc1 [ND-12024, 6-Ethyl-2-methyl-N-((6-(3-(trifluoromethyl)phenoxy)yridine-3-yl)methyl)imidazo[2,1-b]thiazole-5-carboxamide] | 0.22 µM (≈ 0.101 µg/mL) | 0.40 µM (≈ 0.184 µg/mL) | 0.13 µM (≈ 0.0599 µg/mL) | 0.047 µM (≈ 0.0216 µg/mL) | 0.49 µM (≈ 0.226 µg/mL) | – | –
CCc1nc2ccc(Cl)cn2c1C(=O)NCc1ccc(N2CCC(c3ccc(OC(F)(F)F)cc3)CC2)cc1 [Q203] | 0.0038 µM (≈ 0.00212 µg/mL) | 0.0058 µM (≈ 0.00323 µg/mL) | 0.0056 µM (≈ 0.00312 µg/mL) | 0.0030 µM (≈ 0.00167 µg/mL) | 0.0074 µM (≈ 0.00412 µg/mL) | – | –
CO[C@H]1/C=C/O[C@@]2(C)Oc3c(C)c(O)c4c(O)c(c(/C=N/N5CCN(C)CC5)c(O)c4c3C2=O)NC(=O)/C(C)=C\C=C\[C@H](C)[C@H](O)[C@@H](C)[C@@H](O)[C@@H](C)[C@H](OC(C)=O)[C@@H]1C [RIF, Rifampicin] | 0.013 µM (≈ 0.0107 µg/mL) | 0.043 µM (≈ 0.0354 µg/mL) | > 50 µM | 3.2 µM (≈ 2.63 µg/mL) | 0.027 µM (≈ 0.0222 µg/mL) | – | –
